PubChem BioAssay (NCI)
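Where inhibition never reached the appropriate level, the endpoint shown equals the highest concentration tested. Otherwise, values were interpolated linearly from a five-concentration, 48-hour dose response in 96-well plates. The concentration for 50% growth inhibition is given as GI50. At the TGI there is no net growth.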

Experiments:
Experiment in all cases: growth of human tumour cells (NCI), 48 h
SK-MEL-28 melanoma = test system: SK-MEL-28 melanoma
A549 NSCLC = test system: A549 NSCLC
IGROV1 ovarian = test system: IGROV1 ovarian
SF-268 CNS = test system: SF-268 CNS
NCI-H522 lung = test system: NCI-H522 lung
MALME-3M melanoma = test system: MALME-3M melanoma
A498 renal = test system: A498 renal
PC-3 prostate = test system: PC-3 prostate
UO-31 renal = test system: UO-31 renal
CCRF-CEM leukemia = test system: CCRF-CEM leukemia

Row | Structure (SMILES) | TGI (SK-MEL-28 melanoma) | TGI (A549 NSCLC) | TGI (IGROV1 ovarian) | TGI (SF-268 CNS) | TGI (NCI-H522 lung) | TGI (MALME-3M melanoma) | TGI (A498 renal) | TGI (PC-3 prostate) | TGI (UO-31 renal) | TGI (CCRF-CEM leukemia) | GI50 (SK-MEL-28 melanoma) | GI50 (A549 NSCLC) | GI50 (IGROV1 ovarian) | GI50 (SF-268 CNS) | GI50 (NCI-H522 lung) | GI50 (MALME-3M melanoma) | GI50 (A498 renal) | GI50 (PC-3 prostate) | GI50 (UO-31 renal)
1 | NC(=O)CS(=O)CC(N)C(=O)O (configuration not stated) | > 100 µM | > 100 µM | > 100 µM | > 100 µM | > 100 µM | > 100 µM | > 100 µM | > 100 µM | > 100 µM | – | – | – | – | – | – | – | – | – | –
2 | COC(=O)CCN(CCC(=O)OC)C1CC1 | > 100 µM | > 100 µM | > 100 µM | > 100 µM | – | > 100 µM | > 100 µM | – | > 100 µM | > 100 µM | – | – | – | – | – | – | – | – | –
3 | O=C(O)c1ccc(Nc2nc3ccccc3nc2C(=O)O)cc1 | > 100 µM | > 100 µM | > 100 µM | > 100 µM | > 100 µM | > 100 µM | – | – | > 100 µM | > 100 µM | – | – | – | – | – | – | – | – | –
4 | COc1ccc(C2c3cc4c(cc3OC(N3CCCCC3)C2C)OCO4)cc1 (configuration not stated) | > 100 µM | > 100 µM | > 100 µM | > 100 µM | > 100 µM | – | – | > 100 µM | > 100 µM | > 100 µM | – | – | – | – | – | – | – | – | –
5 | CC(=O)Nc1ccc(-c2nnc(SCC(=O)Nc3ccccc3C)o2)cc1 | > 100 µM | > 100 µM | > 100 µM | > 100 µM | > 100 µM | > 100 µM | – | – | > 100 µM | > 100 µM | – | – | – | – | – | – | – | – | –
6 | O=C(C#Cc1cn(C2CC(O)C(CO)O2)c(=O)[nH]c1=O)c1ccccc1 (configuration not stated) | > 100 µM | > 100 µM | > 100 µM | > 100 µM | 17.7 µM | 24.8 µM | – | > 100 µM | > 100 µM | – | – | – | – | – | – | – | – | – | –
7 | COc1ccc2c(c1)CC[C@@H]1[C@@H]2CC[C@]2(C)C(=O)/C(=C/c3cc(OC)c(OC)c(OC)c3)C[C@@H]12 | – | > 100 µM | – | – | – | 35 µM | > 100 µM | 26.9 µM | > 100 µM | – | – | – | – | – | – | – | – | – | –
8 | CN1CC2CC(C1)c1cccc(=O)n1C2 (configuration not stated) | – | > 100 µM | > 100 µM | > 100 µM | > 100 µM | > 100 µM | – | > 100 µM | > 100 µM | – | – | – | – | – | – | – | – | – | –
9 | COc1nc2[nH]ccc2c(=O)n1C | > 100 µM | > 100 µM | > 100 µM | > 100 µM | – | > 100 µM | > 100 µM | – | – | > 100 µM | – | – | – | – | – | – | – | – | –
10 | CCOC(=O)N(C)C1(c2ccccc2)CCN(CCCC(=O)c2ccc(F)cc2)CC1 | 47.1 µM | > 100 µM | > 100 µM | > 100 µM | > 100 µM | 30 µM | > 100 µM | > 100 µM | – | > 100 µM | – | – | – | – | – | – | – | – | –
11 | O=C(NN1C(=O)C=CC1=O)c1ccccc1Nc1ccccc1C(=O)NN1C(=O)C=CC1=O | > 100 µM | – | > 100 µM | > 100 µM | > 100 µM | > 100 µM | – | > 100 µM | > 100 µM | > 100 µM | – | – | – | – | – | – | – | – | –
12 | COc1cc(-c2nc3nc(N4CCN(C)CC4)ccc3[nH]2)c(OC)c2[nH]c(COC(C)=O)nc12 | > 100 µM | > 100 µM | > 100 µM | > 100 µM | > 100 µM | 67.9 µM | > 100 µM | – | 85.2 µM | – | – | – | – | – | – | – | – | – | –
13 | Nc1c(S(=O)(=O)O)cc(Nc2cccc(S(=O)(=O)/C=C/S(=O)(=O)O)c2)c2c1C(=O)c1ccccc1C2=O | > 100 µM | > 100 µM | > 100 µM | > 100 µM | > 100 µM | > 100 µM | > 100 µM | > 100 µM | – | > 100 µM | – | – | – | – | – | – | – | – | –
14 | O=C1C[C@H](c2ccccc2)C2(C(=O)c3ccccc3C2=O)[C@H](c2ccccc2)C1 | > 100 µM | – | > 100 µM | – | > 100 µM | > 100 µM | > 100 µM | > 100 µM | > 100 µM | > 100 µM | – | – | – | – | – | – | – | – | –
15 | O=C1/C(=C/c2ccco2)NC(=S)N1CN1CCOCC1 | > 100 µM | > 100 µM | > 100 µM | > 100 µM | – | – | > 100 µM | > 100 µM | > 100 µM | > 100 µM | – | – | – | – | – | – | – | – | –
16 | COc1ccc2c(c1)-c1oc3ccccc3c(=O)c1CO2 | – | > 100 µM | > 100 µM | > 100 µM | > 100 µM | > 100 µM | – | > 100 µM | 88.4 µM | > 100 µM | – | – | – | – | – | – | – | – | –
17 | COc1cc(C2S/C(=C/c3ccccc3)C(=O)N2c2cccc([N+](=O)[O-])c2)cc(OC)c1OC (configuration not stated) | > 100 µM | > 100 µM | – | > 100 µM | > 100 µM | > 100 µM | > 100 µM | > 100 µM | > 100 µM | – | – | – | – | – | – | – | – | – | –
18 | Clc1ncnc2c1ncn2CCCCCCCCCCCCn1cnc2c(Cl)ncnc21 | 6.82 µM | 26.4 µM | 15.7 µM | 27.7 µM | 2.87 µM | – | 24.6 µM | – | 25.8 µM | > 100 µM | – | – | – | – | – | – | – | – | –
19 | NC(=O)NCCCC(NC(=O)OCCCCCn1ccc(=O)[nH]c1=O)C(=O)O (configuration not stated) | > 100 µM | > 100 µM | > 100 µM | > 100 µM | – | – | – | > 100 µM | > 100 µM | > 100 µM | – | – | – | – | – | – | – | – | –
20 | O=C(Nc1cccc(-n2ccc3c(NC(=O)c4ccccc4)nccc32)c1)c1cc(N2CCOCC2)cc(C(F)(F)F)c1 | > 100 µM | – | > 100 µM | > 100 µM | – | > 100 µM | 0.729 µM | > 100 µM | > 100 µM | – | 0.085 µM | 0.142 µM | 0.235 µM | 0.264 µM | 0.0269 µM | 1.25 µM | 0.0315 µM | 0.152 µM | 0.754 µM
21 | CC(C)(NC1=NCCO1)c1ccccc1 | > 100 µM | > 100 µM | > 100 µM | > 100 µM | > 100 µM | > 100 µM | > 100 µM | > 100 µM | > 100 µM | – | – | – | – | – | – | – | – | – | –
22 | OCC(O)C(O)C(O)C(/C=N\Nc1ncnc2ccc(Br)cc12)=N/Nc1ncnc2ccc(Br)cc12 (configuration not stated) | > 100 µM | > 100 µM | > 100 µM | > 100 µM | 54.9 µM | 57 µM | > 100 µM | > 100 µM | > 100 µM | – | – | – | – | – | – | – | – | – | –
23 | CC1CCC2(CC1)N=C1CCC(C)CC1C1(CCC(C)CC1)N2 (configuration not stated) | > 100 µM | > 100 µM | > 100 µM | – | > 100 µM | > 100 µM | > 100 µM | > 100 µM | > 100 µM | > 100 µM | – | – | – | – | – | – | – | – | –
